The record followed here is ChEMBL document CHEMBL1201862, “PubChem BioAssay data set” (2004).

Test systems include HCT-15; T47D; SN12C; NCI-H23; NCI-H522; RXF 393; TK-10; CAKI-1; NCI-H226; CCRF-CEM; OVCAR-4; Malme-3M; UO-31; SK-OV-3; UACC-62; MOLT-4; SNB-75; HCT-116; A549; K562.
What all share (test): growth of human tumour cells (NCI), 48 h

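Cultured in 96-well plates, cells were exposed to test compound for 48 hours across five concentrations. GI50 = concentration required for 50% inhibition of growth.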 The source made the active and inactive calls. Cut-off read from the data, not from the text of the source: active = GI50 up to about 1.1 µM and inactive = higher.

Regarding `Cc1cc2c(c3c1c1ccccc1n3C)C(=O)C=CC2=O`, the GI50 with HCT-15 was 13.7 µM; in the assay with T47D, 13 µM (inactive); with SN12C it was 27.2 µM (inactive); in the assay on NCI-H23, 10.7 µM (inactive); in the assay on NCI-H522 it was 13.9 µM (inactive); in the assay on RXF 393 it was 15.3 µM (inactive). Besides, the GI50 was 24.2 µM (inactive) in the assay with TK-10; 23.2 µM (inactive) in the assay with CAKI-1; 40.3 µM (inactive) in the assay with NCI-H226; 0.631 µM (active) in the assay with CCRF-CEM; 12 µM (inactive) in the assay on OVCAR-4; 28.3 µM (inactive) in the assay on Malme-3M. Moreover, the GI50 in the assay with UO-31 is 16.1 µM (inactive); in the assay on SK-OV-3, 55.5 µM (inactive); in the assay on UACC-62, 19.6 µM (inactive); in the assay with MOLT-4, 2 µM (inactive); with SNB-75, 41.6 µM (inactive); with HCT-116, 18.8 µM (inactive). The figures for the GI50 with A549 and in the assay with K562 were 44.6 µM (inactive) and 3.15 µM (inactive), respectively.
